Patent US20130012432A1, “Peptides for Treatment of Obesity” (Novo Nordisk A/S, priority 2010, published 2013)
In brackets after ≈: the same amount, converted by molar mass. Positions of bridges follow the written chain, without caps; N, C: chain ends. Non-standard residues stand in square brackets, D forms with d. Residues, ends and D or L forms follow the SMILES beside them. Groups on a side chain read outwards from the residue. *: point of attachment. Palmitoyl(16-(5-tetrazolyl)) = O=C(CCCCCCCCCCCCCCCc1nnn[nH]1)*; Lys(CH2CO2H)2 = N[C@@H](CCCCN(CC(=O)O)CC(=O)O)C(=O)O; C18 diacid = O=C(O)CCCCCCCCCCCCCCCCC(=O)*; C17 diacid = O=C(O)CCCCCCCCCCCCCCCC(=O)*; C16 diacid = O=C(O)CCCCCCCCCCCCCCC(=O)*; hCys = N[C@@H](CCS)C(=O)O; Orn = NCCC[C@H](N)C(=O)O; Dab = NCC[C@H](N)C(=O)O; AEEA = NCCOCCOCC(=O)O

How the values were obtained:
MC1 receptor = MC1 receptor (Homo sapiens, UniProt Q01726); experiment: biochemical
Method in brief: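 Compounds competed against 125I-NDP-α-MSH (22 pM final) for binding to stably MC1-expressing BHK cell membranes, 30 °C for 90 min in HEPES pH 7.4 buffer with 0.1% HSA or ovalbumin. Bound ligand collected by filtration and counted; binding curves analysed by non-linear regression.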

physchem = experiment: physchem
Description: From a stock solution in vehicle, either H2O or 10 mM phosphate, containing 1 mg (as weighed) compound per ml, 8-11 aliquots are withdrawn and pH-adjusted individually with HCl/NaOH, to cover the whole pH range.

human MC4 receptor = human MC4 receptor (Homo sapiens, UniProt P32245); experiment: biochemical
Description: Assay (V)—Melanocortin Receptor 4 (MC4) Binding Assay
In Vitro ^125NDP-α-MSH Binding to Recombinant BHK Cells Expressing Human MC4 Receptor (Filtration Assay).
The assay was performed in 5 ml minisorb vials (Sarstedt No. 55.526) or in 96-well filter-plates (Millipore MADVN 6550), and using BHK cells expressing the human MC4 receptor using BHK cells stably expressing the human MC4 receptor. The membranes were prepared from frozen or fresh cells that were homogenized in 20 mM HEPES pH 7.1, 5 mM MgCl2 and 1 mg/ml bacitracin and centrifuged at 15000 rpm at 4° C., 10 min in a Sorvall RC 5B plus, SS-34 rotor. The supernatant was discarded, and the pellets were re-suspended in buffer, homogenized and centrifuged two more times. The final pellets were resuspended in the buffer mentioned above, and the protein concentration was measured and adjusted with buffer to 14 to 17 mg/ml and the membrane preparation were kept at −80° C. until assay. The assay was run directly on a dilution of this cell membrane suspension, without any further preparation. The BHK cell membranes are kept at −80° C. until assay, and the assay is run directly on a dilution of this cell membrane suspension, without further preparation. The suspension is diluted to give maximally 10% specific binding, i.e. to approx. 50-100 fold dilution. The assay was performed in a total volume of 200 μl: 50 μl of cell suspension, 50 μl of ^125NDP-α-MSH (≈79 pM in final concentration), 50 μl of test compound and 50 μl binding buffer (pH 7) mixed and incubated for 2 h at 25° C. [binding buffer: 25 mM HEPES, pH 7.0, 1 mM CaCl2, 1 mM MgSO4, 1 mM EGTA, 0.02% Bacitracin, 0.005% Tween™ 20 and 0.1% HSA or, alternatively, 0.1% ovalbumin (Sigma; catalogue No. A-5503)]. Test compounds were dissolved in DMSO and diluted in binding buffer. Radiolabelled ligand and membranes were diluted in binding buffer. The incubation was stopped by dilution with 2×100 μl ice-cold 0.9% NaCl. The radioactivity retained on the filters was counted using a Cobra II auto gamma counter.
The data were analysed by non-linear regression analysis of binding curves, using the Windows™ program GraphPad™ Prism (GraphPad Software, USA).

Sequence of MC1 receptor (Q01726 whole entry): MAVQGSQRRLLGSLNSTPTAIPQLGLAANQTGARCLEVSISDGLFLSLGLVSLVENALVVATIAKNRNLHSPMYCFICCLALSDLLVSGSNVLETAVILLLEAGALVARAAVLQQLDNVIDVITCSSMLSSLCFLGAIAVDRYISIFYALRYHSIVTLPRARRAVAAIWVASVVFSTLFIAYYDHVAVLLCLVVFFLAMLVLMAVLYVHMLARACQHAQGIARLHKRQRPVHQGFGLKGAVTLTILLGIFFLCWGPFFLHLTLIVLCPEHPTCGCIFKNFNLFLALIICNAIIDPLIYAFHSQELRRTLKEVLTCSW
Sequence of human MC4 receptor (P32245 whole entry): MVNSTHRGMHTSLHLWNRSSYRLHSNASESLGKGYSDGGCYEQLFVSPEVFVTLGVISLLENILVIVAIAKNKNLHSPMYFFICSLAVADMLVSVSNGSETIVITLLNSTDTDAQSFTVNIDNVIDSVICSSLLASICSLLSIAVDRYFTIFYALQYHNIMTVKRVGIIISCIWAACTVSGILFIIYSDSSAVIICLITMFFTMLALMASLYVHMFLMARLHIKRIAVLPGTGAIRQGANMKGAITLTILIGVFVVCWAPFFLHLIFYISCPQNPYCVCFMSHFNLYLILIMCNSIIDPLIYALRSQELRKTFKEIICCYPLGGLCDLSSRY

Compound | Ki (MC1 receptor) [µM] | solubility (physchem; pH 6.1, Solubility Conc.) [µM] | solubility (physchem; pH 6.7, Solubility Conc.) [µM] | solubility (physchem; pH 7.1, Solubility Conc.) [µM] | solubility (physchem; pH 7.3, Solubility Conc.) [µM] | solubility (physchem; pH 7.7, Solubility Conc.) [µM] | solubility (physchem; pH 7.8, Solubility Conc.) [µM] | Ki (human MC4 receptor) [µM] | solubility (physchem; pH 6.8, Solubility Conc.) [µM] | solubility (physchem; pH 7.6, Solubility Conc.) [µM] | solubility (physchem; pH 8, Solubility Conc.) [µM] | solubility (physchem; pH 6.6, Solubility Conc.) [µM] | solubility (physchem; pH 6.9, Solubility Conc.) [µM] | solubility (physchem; pH 7.4, Solubility Conc.) [µM] | solubility (physchem; pH 7.2, Solubility Conc.) [µM] | solubility (physchem; pH 7.9, Solubility Conc.) [µM] | also measured
CC(=O)N[C@H]1CCSSC[C@@H](C(=O)N2CCC[C@H]2C(=O)N2CCC[C@H]2C(=O)N[C@@H](CCCCN)C(=O)N[C@@H](CCC(=O)O)C(=O)N[C@@H](CCCCN(CC(=O)O)CC(=O)O)C(=O)N[C@@H](CCCCNC(=O)COCCOCCNC(=O)CCCCCCCCCCCCCCC(=O)O)C(N)=O)NC(=O)[C@H](Cc2c[nH]c3ccccc23)NC(=O)[C@H](CCCNC(=N)N)NC(=O)[C@@H](Cc2ccccc2)NC(=O)[C@H](Cc2c[nH]cn2)NC1=O [Example 5, Ac-c[homoCys-His-D-Phe-Arg-Trp-Cys]-Pro-Pro-Lys-Glu-Lys(biscarboxymethyl)-Lys({2-[2-(15-carboxypentadecanoylamino)ethoxy]ethoxy}acetyl)-NH2] (Ac-[hCys]H[dF]RWCPPKE[Lys(CH2CO2H)2]K([AEEA-C16 diacid])-NH2; disulfide 1-6) | > 10 | 200 (≈ 428 µg/mL) | 320 (≈ 685 µg/mL) | 489 (≈ 1050 µg/mL) | 496 (≈ 1060 µg/mL) | 498 (≈ 1070 µg/mL) | 509 (≈ 1090 µg/mL) | 0.017 | – | – | – | – | – | – | – | – | solubility (physchem; pH 3.8, Solubility Conc.): 486 µM (≈ 1040 µg/mL); solubility (physchem; pH 4.6, Solubility Conc.): 452 µM (≈ 968 µg/mL); solubility (physchem; pH 4.9, Solubility Conc.): 233 µM (≈ 499 µg/mL)
CC(=O)N[C@H]1CCCCNC(=O)C[C@@H](C(=O)N2CCC[C@H]2C(=O)N2CCC[C@H]2C(=O)N[C@@H](Cc2c[nH]cn2)C(=O)N[C@@H](CCC(=O)O)C(=O)N[C@@H](CCCCN(CC(=O)O)CC(=O)O)C(=O)N[C@@H](CCCCNC(=O)COCCOCCNC(=O)CCCCCCCCCCCCCCCC(=O)O)C(N)=O)NC(=O)[C@H](Cc2c[nH]c3ccccc23)NC(=O)[C@H](CCCNC(=N)N)NC(=O)[C@@H](Cc2ccccc2)NC(=O)[C@H](Cc2c[nH]cn2)NC1=O [Example 44, Ac-c[Lys-His-D-Phe-Arg-Trp-Asp]-Pro-Pro-His-Glu-Lys(biscarboxymethyl)-Lys({2-[2-(16-carboxyhexadecanoylamino)ethoxy]ethoxy}acetyl)-NH2] (Ac-KH[dF]RWDPPHE[Lys(CH2CO2H)2]K([AEEA-C17 diacid])-NH2; lactam 1-6) | > 10 | – | 364 (≈ 790 µg/mL) | – | 412 (≈ 895 µg/mL) | – | 429 (≈ 932 µg/mL) | 0.017 | 407 (≈ 884 µg/mL) | 407 (≈ 884 µg/mL) | 408 (≈ 886 µg/mL) | – | – | – | – | – | solubility (physchem; pH 6.5, Solubility Conc.): 227 µM (≈ 493 µg/mL); solubility (physchem; pH 7, Solubility Conc.): 430 µM (≈ 934 µg/mL); solubility (physchem; pH 8.2, Solubility Conc.): 430 µM (≈ 934 µg/mL)
CC(=O)N[C@H]1CCCNC(=O)CC[C@@H](C(=O)N2CCC[C@H]2C(=O)N[C@@H](CO)C(=O)N[C@@H](CO)C(=O)N[C@@H](CO)C(=O)N[C@@H](CCC(=O)O)C(=O)N[C@@H](CCC(=O)O)C(=O)N[C@@H](CO)C(=O)N[C@@H](CO)C(=O)N[C@@H](CCCCNC(=O)COCCOCCNC(=O)CCCCCCCCCCCCCCCC(=O)O)C(N)=O)NC(=O)[C@H](Cc2c[nH]c3ccccc23)NC(=O)[C@H](CCCNC(=N)N)NC(=O)[C@@H](Cc2ccccc2)NC(=O)[C@H](Cc2c[nH]cn2)NC1=O [Example 39] (Ac-[Orn]H[dF]RWEPSSSEESSK([AEEA-C17 diacid])-NH2; lactam 1-6) | > 10 | 272 (≈ 614 µg/mL) | – | 419 (≈ 946 µg/mL) | – | 426 (≈ 962 µg/mL) | – | 0.025 | – | – | 397 (≈ 896 µg/mL) | 403 (≈ 910 µg/mL) | 397 (≈ 896 µg/mL) | 448 (≈ 1010 µg/mL) | – | – | solubility (physchem; pH 8.3, Solubility Conc.): 445 µM (≈ 1000 µg/mL)
CC(=O)N[C@H]1CCNC(=O)CC[C@@H](C(=O)N2CCC[C@H]2C(=O)N2CCC[C@H]2C(=O)N[C@@H](CCCNC(=N)N)C(=O)N[C@@H](CC(=O)O)C(=O)N[C@@H](CCCCN(CC(=O)O)CC(=O)O)C(=O)N[C@@H](CCCCNC(=O)COCCOCCNC(=O)CCCCCCCCCCCCCCCc2nnn[nH]2)C(N)=O)NC(=O)[C@H](Cc2c[nH]c3ccccc23)NC(=O)[C@H](CCCNC(=N)N)NC(=O)[C@@H](Cc2ccccc2)NC(=O)[C@H](Cc2c[nH]cn2)NC1=O [Example 23, Ac-c[Dab-His-D-Phe-Arg-Trp-Glu]-Pro-Pro-Arg-Asp-Lys(biscarboxymethyl)-Lys[(2-{2-[16-(tetrazol-5-yl)hexadecanoylamino]ethoxy}ethoxy)acetyl]-NH2] (Ac-[Dab]H[dF]RWEPPRD[Lys(CH2CO2H)2]K([AEEA-Palmitoyl(16-(5-tetrazolyl))])-NH2; lactam 1-6) | > 10 | 34 (≈ 74.3 µg/mL) | – | – | – | 295 (≈ 645 µg/mL) | – | 0.107 | – | 229 (≈ 501 µg/mL) | – | 38 (≈ 83.1 µg/mL) | 45 (≈ 98.4 µg/mL) | 145 (≈ 317 µg/mL) | 76 (≈ 166 µg/mL) | 300 (≈ 656 µg/mL) | solubility (physchem; pH 4.7, Solubility Conc.): 73 µM (≈ 160 µg/mL)
CC(=O)N[C@H]1CC(=O)NCCCC[C@@H](C(=O)N2CCC[C@H]2C(=O)N2CCC[C@H]2C(=O)N[C@@H](CCCNC(=N)N)C(=O)N[C@@H](CC(=O)O)C(=O)N[C@@H](CCCCN(CC(=O)O)CC(=O)O)C(=O)N[C@@H](CCCCNC(=O)COCCOCCNC(=O)CCCCCCCCCCCCCCCc2nnn[nH]2)C(N)=O)NC(=O)[C@H](Cc2c[nH]c3ccccc23)NC(=O)[C@H](CCCNC(=N)N)NC(=O)[C@@H](Cc2ccccc2)NC(=O)[C@H](Cc2c[nH]cn2)NC1=O [Example 35, Ac-c[Asp-His-D-Phe-Arg-Trp-Lys]-Pro-Pro-Arg-Asp-Lys(biscarboxymethyl)-Lys[(2-{2-[16-(tetrazol-5-yl)hexadecanoylamino]ethoxy}ethoxy)acetyl]-NH2] (Ac-DH[dF]RWKPPRD[Lys(CH2CO2H)2]K([AEEA-Palmitoyl(16-(5-tetrazolyl))])-NH2; lactam 1-6) | – | – | – | – | 211 (≈ 464 µg/mL) | 537 (≈ 1180 µg/mL) | – | 0.013 | 44 (≈ 96.8 µg/mL) | – | – | – | – | 425 (≈ 935 µg/mL) | 126 (≈ 277 µg/mL) | 572 (≈ 1260 µg/mL) | solubility (physchem; pH 6.4, Solubility Conc.): 24 µM (≈ 52.8 µg/mL); solubility (physchem; pH 7.5, Solubility Conc.): 526 µM (≈ 1160 µg/mL)
CC(=O)N[C@H]1CCCNC(=O)C[C@@H](C(=O)N2CCC[C@H]2C(=O)N[C@@H](CO)C(=O)N[C@@H](CO)C(=O)N[C@@H](CO)C(=O)N[C@@H](CCCCN(CC(=O)O)CC(=O)O)C(=O)N[C@@H](CO)C(=O)N[C@@H](CO)C(=O)N[C@@H](CCCCNC(=O)COCCOCCNC(=O)CCCCCCCCCCCCCCCCC(=O)O)C(N)=O)NC(=O)[C@H](Cc2c[nH]c3ccccc23)NC(=O)[C@H](CCCNC(=N)N)NC(=O)[C@@H](Cc2ccccc2)NC(=O)[C@H](Cc2c[nH]cn2)NC1=O [Example 14, Ac-c[Orn-His-D-Phe-Arg-Trp-Asp]-Pro-Ser-Ser-Ser-Lys(biscarboxymethyl)-Ser-Ser-Lys({2-[2-(17-carboxyheptadecanoylamino)ethoxy]ethoxy}acetyl)-NH2] (Ac-[Orn]H[dF]RWDPSSS[Lys(CH2CO2H)2]SSK([AEEA-C18 diacid])-NH2; lactam 1-6) | – | – | – | – | – | – | – | 0.0008 | – | – | – | – | – | – | – | – | solubility (physchem; pH 6.4, Solubility Conc., pH 6.4, vehicle 10 mM phosphate): 61 µM (≈ 137 µg/mL); solubility (physchem; pH 6.7, Solubility Conc., pH 6.7, vehicle 10 mM phosphate): 148 µM (≈ 332 µg/mL); solubility (physchem; pH 6.9, Solubility Conc., pH 6.9, vehicle 10 mM phosphate): 403 µM (≈ 904 µg/mL); solubility (physchem; pH 7, Solubility Conc., pH 7.0, vehicle 10 mM phosphate): 485 µM (≈ 1090 µg/mL); solubility (physchem; pH 7.2, Solubility Conc., pH 7.2, vehicle 10 mM phosphate): 507 µM (≈ 1140 µg/mL); solubility (physchem; pH 7.3, Solubility Conc., pH 7.3, vehicle 10 mM phosphate): 535 µM (≈ 1200 µg/mL); solubility (physchem; pH 7.4, Solubility Conc., pH 7.4, vehicle 10 mM phosphate): 513 µM (≈ 1150 µg/mL); solubility (physchem; pH 7.8, Solubility Conc., pH 7.8, vehicle 10 mM phosphate): 506 µM (≈ 1140 µg/mL); solubility (physchem; pH 8, Solubility Conc., pH 8.0, vehicle 10 mM phosphate): 517 µM (≈ 1160 µg/mL)
